Where two headings read alike, the source gives them in different places. Where only a bound is given, the exact number is not on record here.

In one data set the test system is PI3K/Akt/mTor signaling. As to the kind of experiment: Kinase signaling in blood (phosflow). In kind it is cell-based. To be noted: anti-CD3 stimulation. The protocol:
PI3K/Akt/mTor signaling is measured in blood cells using the phosflow method (Methods Enzymol. 2007; 434:131-54). The advantage of this method is that it is by nature a single cell assay so that cellular heterogeneity can be detected rather than population averages. This allows concurrent dinstinction of signaling states in different populations defined by other markers. Phosflow is also highly quantitative. To test the effects of the inhibitors disclosed herein, unfractionated splenocytes, or peripheral blood mononuclear cells are stimulated with anti-CD3 to initiate T-cell receptor signaling. The cells are then fixed and stained for surface markers and intracellular phosphoproteins.
Similarly, aliquots of whole blood are incubated for 15 minutes with vehicle (e.g. 0.1% DMSO) or kinase inhibitors at various concentrations, before addition of stimuli to crosslink the T cell receptor (TCR) (anti-CD3 with secondary antibody) or the B cell receptor (BCR) using anti-kappa light chain antibody (Fab′2 fragments). After approximately 5 and 15 minutes, samples are fixed (e.g. with cold 4% paraformaldehyde) and used for phosflow. […] The level of phosphrylation of kinase substrates such as Akt and S6 are then measured by incubating the fixed cells with labeled antibodies specific to the phosphorylated isoforms of these proteins. The population of cells are then analyzed by flow cytometery. […]

The conditions of data set [1]: control compounds, 5 μM; cited from earlier work.
For data set [2], the system named is leukemic cells from p190 transduced cultures. To be noted: about 70 mg/kg twice daily; cited from earlier work.
The test system of a further data set is PC3. As to the kind of experiment: Tumor cell line proliferation assay (Alamar Blue). In kind it is cell-based. To be noted: Homo sapiens, PC-3.
In a further data set the target is mTORC (Homo sapiens (Human), UniProt P42345). As to the kind of experiment: mTOR kinase inhibition assay. In kind it is biochemical.
The target of the next data set is PI3K α (Homo sapiens (Human), UniProt P42336). Nature of the data set: PI3K α inhibition assay. The format is biochemical.
The next data set addresses PI3K β (Homo sapiens (Human), UniProt P42338). As to the kind of experiment: PI3K β inhibition assay. In kind it is biochemical.
The next data set has as its target PI3K γ (Homo sapiens (Human), UniProt P48736). As to the kind of experiment: PI3K γ inhibition assay. The format is biochemical.
The target of the next data set is PI3K δ (Homo sapiens (Human), UniProt O00329). Nature of the data set: PI3K δ inhibition assay. The format is biochemical.
The next data set relates to B6.Sle1z.Sle3z model. Conditions: cited from earlier work.
For data set [3] the following is noted: PBS pH 7.4, 24 hours, 37 C; cited from earlier work.

Sequence of PI3K γ (P48736 whole entry): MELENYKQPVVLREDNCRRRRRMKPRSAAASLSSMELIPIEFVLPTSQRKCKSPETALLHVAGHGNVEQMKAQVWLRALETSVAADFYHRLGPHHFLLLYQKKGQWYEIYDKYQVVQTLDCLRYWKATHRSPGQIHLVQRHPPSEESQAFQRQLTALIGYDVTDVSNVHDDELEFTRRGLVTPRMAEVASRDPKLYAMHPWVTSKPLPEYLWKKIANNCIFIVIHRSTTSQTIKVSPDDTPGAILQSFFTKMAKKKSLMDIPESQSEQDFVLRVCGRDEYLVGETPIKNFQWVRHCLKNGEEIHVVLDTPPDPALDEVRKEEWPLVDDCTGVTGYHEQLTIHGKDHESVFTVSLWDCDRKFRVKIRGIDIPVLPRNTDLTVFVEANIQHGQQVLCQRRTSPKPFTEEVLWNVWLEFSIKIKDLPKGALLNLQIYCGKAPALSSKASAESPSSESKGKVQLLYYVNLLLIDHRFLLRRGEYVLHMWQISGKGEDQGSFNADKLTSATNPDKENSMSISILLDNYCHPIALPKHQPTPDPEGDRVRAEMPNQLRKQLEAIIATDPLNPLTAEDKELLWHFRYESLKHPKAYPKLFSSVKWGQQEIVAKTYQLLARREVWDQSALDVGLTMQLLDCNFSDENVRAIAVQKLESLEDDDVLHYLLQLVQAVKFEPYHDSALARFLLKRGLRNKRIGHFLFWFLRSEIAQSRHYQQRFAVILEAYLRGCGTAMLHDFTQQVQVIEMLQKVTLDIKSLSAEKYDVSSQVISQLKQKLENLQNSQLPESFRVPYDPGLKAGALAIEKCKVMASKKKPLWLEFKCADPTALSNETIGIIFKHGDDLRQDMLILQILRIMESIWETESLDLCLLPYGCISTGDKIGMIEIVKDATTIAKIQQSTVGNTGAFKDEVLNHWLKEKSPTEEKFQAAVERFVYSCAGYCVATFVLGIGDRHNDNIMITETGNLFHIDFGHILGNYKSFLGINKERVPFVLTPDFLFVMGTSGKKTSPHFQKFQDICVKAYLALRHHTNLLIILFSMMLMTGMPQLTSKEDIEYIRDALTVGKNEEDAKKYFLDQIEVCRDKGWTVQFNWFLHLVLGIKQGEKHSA
Sequence of PI3K α (P42336 whole entry): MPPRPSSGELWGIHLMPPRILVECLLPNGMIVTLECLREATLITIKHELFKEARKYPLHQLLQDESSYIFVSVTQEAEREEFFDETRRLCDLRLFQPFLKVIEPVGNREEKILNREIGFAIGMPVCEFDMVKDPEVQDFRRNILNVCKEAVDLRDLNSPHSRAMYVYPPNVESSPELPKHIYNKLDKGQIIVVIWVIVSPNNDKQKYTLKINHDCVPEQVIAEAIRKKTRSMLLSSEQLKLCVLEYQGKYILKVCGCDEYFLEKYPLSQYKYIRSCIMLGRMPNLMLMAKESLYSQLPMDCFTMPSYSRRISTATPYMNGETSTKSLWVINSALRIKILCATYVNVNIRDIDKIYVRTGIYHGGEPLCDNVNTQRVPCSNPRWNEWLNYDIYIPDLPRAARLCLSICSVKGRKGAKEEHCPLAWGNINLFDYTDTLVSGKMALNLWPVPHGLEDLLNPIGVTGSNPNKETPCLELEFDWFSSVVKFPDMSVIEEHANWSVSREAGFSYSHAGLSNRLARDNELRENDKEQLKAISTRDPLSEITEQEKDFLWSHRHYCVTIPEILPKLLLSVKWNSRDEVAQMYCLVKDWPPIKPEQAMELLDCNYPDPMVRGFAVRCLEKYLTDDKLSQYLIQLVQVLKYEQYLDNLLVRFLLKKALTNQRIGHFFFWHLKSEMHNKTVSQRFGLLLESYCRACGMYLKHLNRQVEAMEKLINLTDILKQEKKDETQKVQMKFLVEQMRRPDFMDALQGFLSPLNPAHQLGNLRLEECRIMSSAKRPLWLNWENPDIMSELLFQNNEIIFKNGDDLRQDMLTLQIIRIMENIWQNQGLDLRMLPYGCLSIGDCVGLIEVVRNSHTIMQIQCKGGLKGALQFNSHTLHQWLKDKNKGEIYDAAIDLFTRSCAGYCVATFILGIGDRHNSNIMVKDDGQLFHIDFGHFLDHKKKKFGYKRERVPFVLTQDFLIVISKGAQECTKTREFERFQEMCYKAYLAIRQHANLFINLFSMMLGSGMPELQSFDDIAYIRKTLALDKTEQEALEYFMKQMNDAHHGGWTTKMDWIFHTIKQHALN
Sequence of PI3K α (P27986 whole entry partner): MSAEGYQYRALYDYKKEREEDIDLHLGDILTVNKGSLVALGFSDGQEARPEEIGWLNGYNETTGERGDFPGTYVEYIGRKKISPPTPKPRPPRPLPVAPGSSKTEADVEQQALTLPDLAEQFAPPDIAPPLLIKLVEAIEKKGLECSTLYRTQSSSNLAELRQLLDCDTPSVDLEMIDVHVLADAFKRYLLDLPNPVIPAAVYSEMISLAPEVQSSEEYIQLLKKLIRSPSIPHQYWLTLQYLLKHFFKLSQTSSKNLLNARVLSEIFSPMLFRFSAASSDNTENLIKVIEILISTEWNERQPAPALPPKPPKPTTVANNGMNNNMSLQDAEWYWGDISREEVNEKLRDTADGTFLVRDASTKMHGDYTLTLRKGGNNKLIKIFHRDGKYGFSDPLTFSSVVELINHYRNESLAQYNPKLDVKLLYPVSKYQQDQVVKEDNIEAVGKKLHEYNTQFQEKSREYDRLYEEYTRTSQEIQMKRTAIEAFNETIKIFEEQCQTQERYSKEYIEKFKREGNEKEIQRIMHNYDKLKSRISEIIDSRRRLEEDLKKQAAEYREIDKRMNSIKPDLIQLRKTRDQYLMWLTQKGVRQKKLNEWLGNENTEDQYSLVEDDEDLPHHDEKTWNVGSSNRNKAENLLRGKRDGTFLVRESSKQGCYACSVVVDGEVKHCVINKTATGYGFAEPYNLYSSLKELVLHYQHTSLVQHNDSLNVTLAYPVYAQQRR
Sequence of PI3K β (P42338 whole entry): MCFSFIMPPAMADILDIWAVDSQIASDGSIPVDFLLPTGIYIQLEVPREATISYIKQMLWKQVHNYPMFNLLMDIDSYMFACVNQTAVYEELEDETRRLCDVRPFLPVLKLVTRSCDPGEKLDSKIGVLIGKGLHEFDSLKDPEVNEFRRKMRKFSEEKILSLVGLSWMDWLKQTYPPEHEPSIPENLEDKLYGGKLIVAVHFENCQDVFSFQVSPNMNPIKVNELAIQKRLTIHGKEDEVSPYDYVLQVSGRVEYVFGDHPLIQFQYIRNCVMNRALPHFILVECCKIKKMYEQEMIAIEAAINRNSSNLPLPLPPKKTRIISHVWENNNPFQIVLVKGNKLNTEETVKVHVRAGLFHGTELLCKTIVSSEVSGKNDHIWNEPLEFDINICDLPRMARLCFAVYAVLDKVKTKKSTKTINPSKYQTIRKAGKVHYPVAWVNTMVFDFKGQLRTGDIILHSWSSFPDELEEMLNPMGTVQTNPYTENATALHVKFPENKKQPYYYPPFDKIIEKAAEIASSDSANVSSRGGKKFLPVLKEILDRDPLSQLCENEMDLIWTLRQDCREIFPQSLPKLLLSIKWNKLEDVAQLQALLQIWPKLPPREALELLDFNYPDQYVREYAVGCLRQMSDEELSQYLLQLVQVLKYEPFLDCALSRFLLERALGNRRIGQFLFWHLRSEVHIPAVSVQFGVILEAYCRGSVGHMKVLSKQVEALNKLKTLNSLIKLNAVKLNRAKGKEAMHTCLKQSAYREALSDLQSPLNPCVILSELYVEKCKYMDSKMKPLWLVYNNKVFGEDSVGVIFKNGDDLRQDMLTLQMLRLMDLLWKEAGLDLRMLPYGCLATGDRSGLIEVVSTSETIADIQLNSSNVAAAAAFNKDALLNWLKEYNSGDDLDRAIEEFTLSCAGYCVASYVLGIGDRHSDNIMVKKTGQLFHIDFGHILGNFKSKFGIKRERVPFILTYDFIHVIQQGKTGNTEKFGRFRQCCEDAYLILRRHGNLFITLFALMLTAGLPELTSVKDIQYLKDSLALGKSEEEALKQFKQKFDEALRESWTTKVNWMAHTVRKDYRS
Sequence of PI3K β (P27986 whole entry partner): as the sequence (P27986 whole entry partner) above
Sequence of PI3K δ (O00329 whole entry): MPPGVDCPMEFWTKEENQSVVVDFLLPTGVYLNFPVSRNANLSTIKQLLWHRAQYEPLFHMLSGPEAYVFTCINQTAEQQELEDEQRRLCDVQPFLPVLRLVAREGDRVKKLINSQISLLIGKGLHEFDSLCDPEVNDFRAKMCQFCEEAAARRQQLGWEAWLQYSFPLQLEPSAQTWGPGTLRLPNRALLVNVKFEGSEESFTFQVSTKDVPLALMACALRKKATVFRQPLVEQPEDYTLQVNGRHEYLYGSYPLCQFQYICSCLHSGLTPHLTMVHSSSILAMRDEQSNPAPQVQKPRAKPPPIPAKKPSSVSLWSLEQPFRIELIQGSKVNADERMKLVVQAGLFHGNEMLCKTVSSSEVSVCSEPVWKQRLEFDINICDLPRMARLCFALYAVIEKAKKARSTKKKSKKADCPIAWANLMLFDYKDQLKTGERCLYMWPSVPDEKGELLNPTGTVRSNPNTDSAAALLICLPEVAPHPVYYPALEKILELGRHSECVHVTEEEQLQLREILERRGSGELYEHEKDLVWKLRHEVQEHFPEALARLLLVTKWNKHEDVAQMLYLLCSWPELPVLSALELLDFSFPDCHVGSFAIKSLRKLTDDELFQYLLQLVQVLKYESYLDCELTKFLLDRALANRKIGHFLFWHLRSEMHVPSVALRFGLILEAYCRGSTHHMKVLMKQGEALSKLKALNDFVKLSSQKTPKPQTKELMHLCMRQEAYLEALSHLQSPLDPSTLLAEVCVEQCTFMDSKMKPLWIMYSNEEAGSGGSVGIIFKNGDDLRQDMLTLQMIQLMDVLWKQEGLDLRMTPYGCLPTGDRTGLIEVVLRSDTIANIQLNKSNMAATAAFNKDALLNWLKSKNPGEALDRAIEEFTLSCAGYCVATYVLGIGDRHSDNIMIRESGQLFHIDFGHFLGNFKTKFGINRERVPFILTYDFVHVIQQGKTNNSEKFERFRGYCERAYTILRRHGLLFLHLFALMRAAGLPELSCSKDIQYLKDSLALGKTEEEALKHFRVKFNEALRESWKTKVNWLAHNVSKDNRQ
Sequence of PI3K δ (P27986 whole entry partner): as the sequence (P27986 whole entry partner) above
Protocol for PC3: The ability of one or more subject compounds to inhibit tumor cell line proliferation is determined according to standard procedures known in the art. For instance, an in vitro cellular proliferation assay can be performed to measure the metabolic activity of live cells. The assay is performed in a 96 well microtiter plate using Alamar Blue reduction. […] A compound disclosed herein is diluted in Tumor Cell Media and added in a 10 ul volume. […] A volume of 10 uL of Alamar Blue reagent is added to each well and plates are incubated for 3 hours at 37 C and 5% CO2. Alamar Blue fluoresce is read at 560Ex/590Em, and IC50 values are calculated using GraphPad Prism 5.
Protocol for PI3K α: (§1) IC50 values are measured using either a standard TLC assay for lipid kinase activity (described below) or a high-throughput membrane capture assay. Kinase reactions are performed by preparing a reaction mixture containing kinase, inhibitor (2% DMSO final concentration), buffer (25 mM HEPES, pH 7.4, 10 mM MgCl2), and freshly sonicated phosphatidylinositol (100 μg/ml). Reactions are initiated by the addition of ATP containing 10 μCi of γ-32P-ATP to a final concentration 10 or 100 μM and allowed to proceed for 5 minutes at room temperature. For TLC analysis, reactions are then terminated by the addition of 105 μl 1N HCl followed by 160 μl CHCl3:MeOH (1:1). The biphasic mixture is vortexed, briefly centrifuged, and the organic phase is transferred to a new tube using a gel loading pipette tip precoated with CHCl3. […] The TLC plates are then dried, exposed to a phosphorimager screen (Storm, Amersham), and quantitated.
(§2) Briefly, the assay is a time resolved FRET assay that indirectly measures PIP3 product formed by the activity of a PI3-K. The kinase reaction is performed in a microtitre plate (e.g., a 384 well microtitre plate). The total reaction volume is approximately 20 ul per well. In the first step, each well receives 2 ul of test compound in 20% dimethylsulphoxide resulting in a 2% DMSO final concentration. Next, approximately 14.5 ul of a kinase/PIP2 mixture (diluted in 1× reaction buffer) is added per well for a final concentration of 0.25-0.3 ug/ml kinase and 10 uM PIP2. The plate is sealed and incubated for 15 minutes at room temperature. To start the reaction, 3.5 ul of ATP (diluted in 1× reaction buffer) is added per well for a final concentration of 10 uM ATP. The plate is sealed and incubated for 1 hour at room temperature. The reaction is stopped by adding 5 ul of Stop Solution per well and then 5 ul of Detection Mix is added per well. The plate is sealed, incubated for 1 hour at room temperature, and then read on an appropriate plate reader. Data is analyzed and IC50s are generated using GraphPad Prism 5.
Protocol for PI3K β: as §1, §2
Protocol for PI3K γ: as §1, §2
Protocol for PI3K δ: as §1, §2
Protocol for mTORC: The compounds described herein can be tested against recombinant mTOR (Invitrogen) in an assay containing 50 mM HEPES, pH 7.5, 1 mM EGTA, 10 mM MgCl2, 2.5 mM, 0.01% Tween, 10 μM ATP (2.5 μCi of p-32P-ATP), and 3 μg/mL BSA. Rat recombinant PHAS-1/4EBP1 (Calbiochem; 2 mg/mL) is used as a substrate. Reactions are terminated by spotting onto nitrocellulose, which is washed with 1M NaCl/1% phosphoric acid (approximately 6 times, 5-10 minutes each). Sheets are dried and the transferred radioactivity quantitated by phosphorimaging.
For instance, one can use Invitrogen's LanthaScreen™ Kinase assay to test the inhibitors of mTOR disclosed herein. This assay is a time resolved FRET platform that measures the phosphorylation of GFP labeled 4EBP1 by mTOR kinase. The kinase reaction is performed in a white 384 well microtitre plate. The total reaction volume is 20 ul per well and the reaction buffer composition is 50 mM HEPES pH7.5, 0.01% Polysorbate 20, 1 mM EGTA, 10 mM MnCl2, and 2 mM DTT. In the first step, each well receives 2 ul of test compound in 20% dimethylsulphoxide resulting in a 2% DMSO final concentration. Next, 8 ul of mTOR diluted in reaction buffer is added per well for a 60 ng/ml final concentration. To start the reaction, 10 ul of an ATP/GFP-4EBP1 mixture (diluted in reaction buffer) is added per well for a final concentration of 10 uM ATP and 0.5 uM GFP-4EBP1. The plate is sealed and incubated for 1 hour at room temperature. […] The plate is sealed, incubated for 1 hour at room temperature, and then read on a plate reader set up for LanthaScreen™ TR-FRET. Data is analyzed and IC50s are generated using GraphPad Prism 5.

As to `CO[C@H]1C[C@@H]2CC[C@@H](C)[C@@](O)(O2)C(=O)C(=O)N2CCCC[C@H]2C(=O)O[C@H]([C@H](C)C[C@@H]2CC[C@@H](O)[C@H](OC)C2)CC(=O)[C@H](C)/C=C(\C)[C@@H](O)[C@@H](OC)C(=O)[C@H](C)C[C@H](C)/C=C/C=C/C=C/1C` [rapamycin], in the data set with PI3K/Akt/mTor signaling, the Akt phosphorylation entry is listed as “enhances” and the S6 phosphorylation result is “inhibits”.

In the case of `CCCOc1cc(N)ccc1C(=O)OCCN(CC)CC` [propoxycaine], in data set [1], the plasma stability result is recorded as “low plasma stability”.

With `Cc1ccc(NC(=O)c2ccc(CN3CCN(C)CC3)cc2)cc1Nc1nccc(-c2cccnc2)n1` [imatinib], the leukemogenesis entry in data set [2] is “delay but not cure leukemogenesis”.

Turning to `CC(C)n1nc(-c2cc3c(Cl)c(O)ccc3[nH]2)c2c(N)ncnc21` [Compound 22], the IC50 in the data set on PC3 (Table 1, PC3 cells, read-out: PC3 proliferation) was less than 500 nM.

In the case of `CNC(=O)Nc1nc2ccc(-c3nn(C4CCN(C(C)=O)CC4)c4ncnc(N)c34)cc2s1` [Compound 23], the IC50 was not above 50 nM at mTORC (Table 2, compound numbers of Table 3, read-out: IC50 results mTORC); not above 50 nM on PI3K α (Table 2, compound numbers of Table 3, read-out: IC50 results PI3K alpha); not above 100 nM on PI3K β (Table 2, compound numbers of Table 3, read-out: IC50 results PI3K beta); not above 50 nM at PI3K γ (Table 2, compound numbers of Table 3, read-out: IC50 results PI3K gamma); not above 50 nM at PI3K δ (Table 2, compound numbers of Table 3, read-out: IC50 results PI3K delta); more than 1000 nM in the data set with PC3 (Table 2, compound numbers of Table 3, read-out: IC50 results PC3 proliferation).

Take `CO[C@H]1C[C@@H]2CC[C@@H](C)[C@@](O)(O2)C(=O)C(=O)N2CCCC[C@H]2C(=O)O[C@H]([C@H](C)C[C@@H]2CC[C@@H](OCCO)[C@H](OC)C2)CC(=O)[C@H](C)/C=C(\C)[C@@H](O)[C@@H](OC)C(=O)[C@H](C)C[C@H](C)/C=C/C=C/C=C/1C` [RAD001]: the lupus symptoms result with B6.Sle1z.Sle3z model is listed as “ameliorate lupus symptoms”.

Consider `Nc1ncnc2c1c(-c1cc3cccc(O)c3[nH]1)nn2C1CCOCC1` [Compound 62], for which the IC50 on mTORC (Table 1, read-out: mTORC IC50) is less than 5 nM; on PI3K α (Table 1, read-out: PI3K α IC50), more than 500 nM; at PI3K β (Table 1, read-out: PI3K β IC50), more than 500 nM; on PI3K γ (Table 1, read-out: PI3K γ IC50) it was more than 500 nM; on PI3K δ (Table 1, read-out: PI3K δ IC50), less than 100 nM.

For the molecule `O=C(O)CCCc1ccc(N(CCCl)CCCl)cc1` [chlorambucil], in data set [3], the chemical stability entry was “largely hydrolyzed over the course of 24 hours”.

With `CN1CCN(C2CC(n3nc(-c4cc5cc(O)ccc5[nH]4)c4c(N)ncnc43)C2)CC1` (stereo not shown) [Compound 52], the IC50 at mTORC (Table 1, read-out: mTORC IC50) is less than 500 nM; on PI3K α (Table 1, read-out: PI3K α IC50), more than 500 nM; at PI3K β (Table 1, read-out: PI3K β IC50) it was more than 500 nM; at PI3K γ (Table 1, read-out: PI3K γ IC50) it was more than 500 nM; at PI3K δ (Table 1, read-out: PI3K δ IC50), less than 500 nM.

Regarding `COc1cccc2cc(-c3nn(C4CCOCC4)c4ncnc(N)c34)[nH]c12` [Compound 63], the IC50 on mTORC (Table 1, read-out: mTORC IC50) is less than 5 nM; at PI3K α (Table 1, read-out: PI3K α IC50), less than 500 nM; at PI3K β (Table 1, read-out: PI3K β IC50), more than 500 nM; at PI3K γ (Table 1, read-out: PI3K γ IC50) it was less than 25 nM; on PI3K δ (Table 1, read-out: PI3K δ IC50), less than 25 nM.

Turning to `CC(C)[N+](C)(CCOC(=O)C1c2ccccc2Oc2ccccc21)C(C)C` [propantheline], the plasma stability result in [1] is “intermediate plasma stability”.

Consider `CC(C)n1nc(-c2cc3cccc(Cl)c3[nH]2)c2c(N)ncnc21` [Compound 50], for which the IC50 at mTORC (Table 1, read-out: mTORC IC50) is less than 50 nM; on PI3K α (Table 1, read-out: PI3K α IC50), more than 500 nM; on PI3K β (Table 1, read-out: PI3K β IC50), more than 500 nM; on PI3K γ (Table 1, read-out: PI3K γ IC50) it was less than 500 nM; on PI3K δ (Table 1, read-out: PI3K δ IC50), less than 500 nM.

For `Nc1ncnc2c1c(-c1cc3cc(O)ccc3[nH]1)nn2C1CC(N2CCOCC2)C1` (stereo not shown) [Compound 49], the IC50 at mTORC (Table 1, read-out: mTORC IC50) was less than 10 nM; at PI3K α (Table 1, read-out: PI3K α IC50), more than 500 nM; on PI3K β (Table 1, read-out: PI3K β IC50), more than 500 nM; at PI3K γ (Table 1, read-out: PI3K γ IC50), less than 500 nM; at PI3K δ (Table 1, read-out: PI3K δ IC50), less than 500 nM.

In the case of `CC(=O)N1CCC(n2nc(-c3cc4cc(O)cc(Cl)c4[nH]3)c3c(N)ncnc32)CC1` [Compound 70], the IC50 was less than 5 nM on mTORC (Table 1, read-out: mTORC IC50); less than 500 nM at PI3K α (Table 1, read-out: PI3K α IC50); more than 500 nM at PI3K β (Table 1, read-out: PI3K β IC50); less than 100 nM at PI3K γ (Table 1, read-out: PI3K γ IC50); less than 25 nM on PI3K δ (Table 1, read-out: PI3K δ IC50).

Turning to `COc1cc(Cl)c2[nH]c(-c3nn(C4CCOCC4)c4ncnc(N)c34)cc2c1` [Compound 67], the IC50 on mTORC (Table 1, read-out: mTORC IC50) was more than 500 nM; on PI3K α (Table 1, read-out: PI3K α IC50), more than 500 nM; on PI3K β (Table 1, read-out: PI3K β IC50), more than 500 nM; at PI3K γ (Table 1, read-out: PI3K γ IC50), more than 500 nM; on PI3K δ (Table 1, read-out: PI3K δ IC50), more than 500 nM.

The values are drawn from patent publication US9828378B2, “Kinase inhibitors and methods of use” (Intellikine LLC, priority 2008, dated 2017).
